Legend:
Format in all cases: physicochemical
[1] = Dissolution rate of NCX4016, paddle method (F.U.X.), 1% sodium lauryl sulphate solution; conditions: 900 ml, 37° C., 150 rpm
Description: The dissolution rate of the solid dispersion produced in the example 3 has been compared with the dissolution rate of the pure NCX4016 in micronised form using the paddle method described in F.U.X., according to the following operating conditions T=37° C.±0.5° C., stirring rate: 150 rpm, dissolution means: 1% sodium lauryl sulphate solution, dissolution volume: 900 ml.
The quantity of NCX4016 released has been spectrophotometrically evaluated in continuous at a wavelength 232 nm.

[2] = Dissolution rate of NCX4016 under condition of supersaturation, paddle method, distilled water; conditions: after 5 minutes, from solid dispersion 2
Description: Three samples of microspheres have been exactly weighed so as to have a content of nitroaspirine of 30 mg. This quantity corresponds to about 4 times the solubility in water of the active principle.
The dissolution rate of the active principle from the above mentioned 3 solid dispersions has been compared with the dissolution rate of the pure active principle in micronized form, with the paddle method, described in F.U.X. using the following conditions:
dissolution means: distilled water
stirring rate: 100 r.p.m.
The quantity of NCX 4016 released has been evaluated spectrophotometrically in continuous at a wavelength 232 nm.
The samples have been taken by means of a peristaltic pump at 5 minutes intervals and for the total time of one hour.

[3] = Dissolution rate of NCX 1022, paddle method, distilled water with 1% w/v Tween 80; conditions: within one hour
Description: The dissolution rate of the active ingredient from the solid dispersion produced in Example 6 has been compared with the dissolution rate of the pure active ingredient, using the paddle method described in F.U.X. In detail, 40 mg of the solid dispersion or 5 mg of pure NCX 1022 have been placed in a thermostated container at 37° C.±0.5° C. in 500 ml of distilled water including 1% w/v of Tween 80 and kept under stirring at 100 rpm. The quantity of NCX 1022 dissolved has been spectrophotometrically determined in continuous at a wavelength of 240 nm.

Row | solubilisation [3] | Structure (SMILES) | percentage of active principle dissolved ([1]; 5 minutes) | percentage of active principle dissolved ([1]; 10 minutes) | percentage of active principle dissolved ([1]; 15 minutes) | percentage of active principle dissolved ([1]; 20 minutes) | percentage of active principle dissolved ([1]; 25 minutes) | percentage of active principle dissolved ([1]; 30 minutes) | percentage of active principle dissolved ([1]; 35 minutes) | percentage of active principle dissolved ([1]; 40 minutes) | percentage of active principle dissolved ([1]; 45 minutes) | percentage of active principle dissolved ([1]; 50 minutes) | percentage of active principle dissolved ([1]; 55 minutes) | percentage of active principle dissolved ([1]; 60 minutes) | quantity dissolved relative to the solubility of the active ingredient in the dissolution means [2]
1 |  | CC(=O)Oc1ccccc1C(=O)Oc1cccc(CO[N+](=O)[O-])c1 [NCX4016 micronized, 3-(nitroxymethyl)phenyl Ester of 2-acetoxybenzoic Acid] | 17.9% | 39.2% | 53.5% | 60.7% | 71.4% | 77% | 80.9% | 84.4% | 87% | 88.9% | 90.6% | 91.4% | about twice
2 | 4.3% | C[C@]12CCC(=O)C=C1CC[C@@H]1[C@@H]2[C@@H](O)C[C@@]2(C)[C@H]1CC[C@]2(O)C(=O)COC(=O)c1ccc(CO[N+](=O)[O-])cc1 [NCX 1022, hydroxycortisone 21-[(4′-nitroxymethyl)benzoate]] |  |  |  |  |  |  |  |  |  |  |  |  | 

— US20040071777A1, “Solid dispersions of nitrate active principles” (priority 2000, published 2004)
